In general, inhibition refers to the drop in the measured response relative to a control, in per cent. A high value points to strong suppression.

The test system of assay [1] is IgE secreted into culture supernatant by BALB/c mouse spleen cells. The assay can be described thus: Determination of IgE produced in in vitro culture of spleen cells (adoptive secondary immune response against DNP-As), ELISA. The conditions noted are these: 96 h, spleen cells 5×10^6 cells/ml, 4 days, 37° C.; for inhibition at 10 µg/mL: 10 μg/ml. It is filed as cell-based. The procedure: (§1) The antiallergic activities of the 5H-pyrazolo[4,3-a]quinolizin-5-one compounds of formula (I) are also confirmed by inhibition of the rat homologous passive cutaneous anaphylaxis (hereinafter referred to as PCA) reaction.
(§2) Determination of Igs produced in in vitro culture
(§3) BALB/c mice were immunized intraperitoneally with 5 μg of DNP-As adsorbed on 4 mg aluminum hydroxide gel. Four weeks after the immunization, the spleens were excised from the mice and 5×10^7 spleen cells were transferred intravenously into the recipient mice which had been exposed to 600 rad of X-ray irradiation. Immediately after the cell transfer, the recipients were then immunized intraperitoneally with 5 μg of DNP-As adsorbed on 4 mg aluminum hydroxide gel to induce adoptive secondary immune response. Further 4 weeks after the immunization of recipients, the spleens were excised from them and the spleen cell suspensions containing 5×10^6 cells/ml were cultured with or without a compound to be tested in 96-well micro-titer plates at 37° C. for 4 days. IgE and IgG secreted into the culture supernatant was each determined correspondingly by enzyme-linked immunosolvent assay and the inhibitory effect was calculated according to the following equation. [formula]
Background: In an ELISA, binding on a coated surface is turned into a signal by an enzyme label.

Assay [2] has as its system IgG secreted into culture supernatant by BALB/c mouse spleen cells. In words: Determination of IgG produced in in vitro culture of spleen cells (adoptive secondary immune response against DNP-As), ELISA. In kind it is cell-based. The conditions noted are these: 96 h, spleen cells 5×10^6 cells/ml, 4 days, 37° C.; for inhibition at 10 µg/mL: 10 μg/ml. How it is done:
as §1, §2, §3

As to `CC(=O)n1nc(CC(C)C)c2c1c(C#N)c(=O)n1ccccc21` [S-38], the inhibition at 10 µg/mL in assay [1] amounted to 40%; in assay [2], 4%.

For the compound `CCc1nn(C(C)=O)c2c(C#N)c(=O)n3ccccc3c12` [S-31], the inhibition at 20 µg/mL in assay [1] (20 μg/ml) worked out at 75%; in assay [2] (20 μg/ml) it was 33%.

For the compound `CCCc1nn(C(C)=O)c2c(C#N)c(=O)n3ccccc3c12` [S-26, 3-Acetyl-4-cyano-1-propyl-5H-pyrazolo[4,3-a]quinolizin-5-one], the inhibition at 10 µg/mL came out at 55% in assay [1] and 18% in assay [2].

(Values after patent US4940715A, “5H-pyrazolo[4,3-A] quinolizin-5-one compounds exhibiting therapeutic activities” (Kissei Pharmaceutical Co., Ltd., priority 1988, dated 1990).)
